Test results taken from the supplement of paper PMC10307832.

Experiments:
Test in all cases: relative viability (nuclei count vs DMSO), 5 days (fraction); higher = more cells survive
kb NB 142-70 + Lapatinib = compound: C1CSC2=C(C(=O)N1)SC3=C2C=C(C=C3)O [kb NB 142-70] + CS(=O)(=O)CCNCc1ccc(-c2ccc3ncnc(Nc4ccc(OCc5cccc(F)c5)c(Cl)c4)c3c2)o1 [Lapatinib] (partner 2 µM)
Procedure, shortened: (§1)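 Five library-drug doses in √10 steps were combined with a fixed anchor-drug dose, or a single drug was given alone, by pin tool to lung cancer cell lines in 1536-well plates the day after seeding. Nuclei were stained and counted after 5 days. Relative viability is the nuclei count in treated wells over that in vehicle wells, taken as the median of duplicate plates.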

[1] = compound: C1CSC2=C(C(=O)N1)SC3=C2C=C(C=C3)O [kb NB 142-70] + CC1(C)CCC(c2ccc(Cl)cc2)=C(CN2CCN(c3ccc(C(=O)NS(=O)(=O)c4ccc(N[C@H](CCN5CCOCC5)CSc5ccccc5)c(S(=O)(=O)C(F)(F)F)c4)cc3)CC2)C1 [Navitoclax] (partner 0.5 µM)
Procedure, shortened: as §1

kb NB 142-70 + AZD7762 = compound: C1CSC2=C(C(=O)N1)SC3=C2C=C(C=C3)O [kb NB 142-70] + NC(=O)Nc1cc(-c2cccc(F)c2)sc1C(=O)N[C@H]1CCCNC1 [AZD7762] (partner 0.2 µM)
Procedure, shortened: as §1

[2] = compound: C1CSC2=C(C(=O)N1)SC3=C2C=C(C=C3)O [kb NB 142-70] + CS(=O)(=O)N1CCN(Cc2cc3nc(-c4cccc5[nH]ncc45)nc(N4CCOCC4)c3s2)CC1 [Pictilisib] (partner 1 µM)
Procedure, shortened: as §1

[3] = compound: NCC(=O)Nc1ccc(-n2nc(C(F)(F)F)cc2-c2ccc3c(ccc4ccccc43)c2)cc1 + CCNC(=O)c1noc(-c2cc(C(C)C)c(O)cc2O)c1-c1ccc(CN2CCOCC2)cc1 [Luminespib] (partner 0.01 µM)
Procedure, shortened: as §1

Row | Cell Line | relative viability (kb NB 142-70 + Lapatinib; first compound 0.1 µM) | relative viability (kb NB 142-70 + Lapatinib; first compound 1 µM) | relative viability (kb NB 142-70 + Lapatinib; first compound 3.162 µM) | relative viability ([1]; first compound 0.1 µM) | relative viability ([1]; first compound 1 µM) | relative viability ([1]; first compound 3.162 µM) | relative viability (kb NB 142-70 + AZD7762; first compound 0.1 µM) | relative viability (kb NB 142-70 + AZD7762; first compound 1 µM) | relative viability (kb NB 142-70 + AZD7762; first compound 3.162 µM) | relative viability ([2]; first compound 0.1 µM) | relative viability ([2]; first compound 1 µM) | relative viability ([2]; first compound 3.162 µM) | relative viability ([3]; first compound 0.02 µM) | relative viability ([3]; first compound 0.06325 µM) | relative viability ([3]; first compound 0.2 µM) | relative viability ([3]; first compound 0.6325 µM) | relative viability ([3]; first compound 2 µM)
1 | NCI-H1975 | 0.894 | 0.881 | 0.433 | 1.14 | 1.15 | 0.761 | 0.652 | 0.748 | 0.7 | 0.263 | 0.264 | 0.178 | 0.125 | 0.29 | 0.236 | 0.278 | 0.247
2 | CAL-12T | 0.673 | 0.673 | 0.496 | 1.34 | 1.16 | 1.08 | 0.548 | 0.718 | 0.704 | 0.563 | 0.451 | 0.344 | 0.54 | 0.22 | 0.531 | 0.536 | 0.463
3 | NCI-H1623 |  |  |  |  |  |  |  |  |  |  |  |  | 0.552 | 0.425 | 0.457 | 0.661 | 0.558
4 | HCC-44 | 1.02 | 1.03 | 0.996 | 1 | 1.16 | 1.09 | 0.99 | 1.06 | 1.06 | 0.566 | 0.622 | 0.646 | 1.1 | 1.05 | 1.06 | 1.03 | 0.938
5 | EKVX | 0.263 | 0.216 | 0.235 | 0.883 | 1.01 | 0.87 | 0.739 | 0.704 | 0.684 | 0.413 | 0.465 | 0.438 | 0.957 | 0.923 | 0.894 | 0.842 | 0.909
6 | NCI-H1651 | 0.902 | 0.789 | 0.471 | 1.07 | 1.03 | 0.39 | 0.488 | 0.448 | 0.547 | 0.563 | 0.497 | 0.344 | 0.8 | 0.965 | 0.872 | 0.81 | 0.861
7 | NCI-H1944 | 0.865 | 0.827 | 0.936 | 1.07 | 1.05 | 0.973 | 0.492 | 0.514 | 0.6 | 0.358 | 0.375 | 0.41 | 0.667 | 0.71 | 0.787 | 0.715 | 0.75
8 | NCI-H1703 | 1.1 | 1.08 | 1.31 | 1.04 | 1.05 | 0.93 | 0.125 | 0.134 | 0.134 | 0.249 | 0.286 | 0.255 |  |  |  |  | 
9 | Calu-6 | 1.07 | 0.972 | 0.627 | 0.859 | 0.891 | 0.376 |  |  |  | 0.873 | 0.805 | 0.457 |  |  |  |  | 
10 | EBC-1 | 0.233 | 0.211 | 0.217 | 0.415 | 0.322 | 0.22 |  |  |  | 0.369 | 0.398 | 0.265 |  |  |  |  | 
11 | SW 1573 | 1.03 | 0.877 | 0.988 | 0.954 | 0.878 | 0.561 |  |  |  | 0.49 | 0.337 | 0.26 | 0.252 | 0.151 | 0.151 | 0.677 | 0.209
12 | A-427 | 1.12 | 1.14 | 1.04 | 1.03 | 1.07 | 0.962 | 0.783 | 0.93 | 1.08 | 0.816 | 0.753 | 0.748 | 0.886 | 0.849 | 1.06 | 0.864 | 0.996
13 | NCI-H2347 | 1.02 | 1.07 | 0.936 | 0.867 | 0.77 | 0.608 | 0.873 | 0.924 | 0.737 | 0.874 | 0.659 | 0.324 | 0.427 | 0.634 | 0.7 | 0.686 | 0.7
14 | NCI-H1355 | 0.993 | 0.943 | 1.07 | 1.02 | 0.881 | 0.936 | 0.776 | 0.81 | 1 | 0.491 | 0.428 | 0.425 | 0.668 | 0.765 | 0.72 | 0.791 | 0.752
15 | NCI-H358 | 0.45 | 0.396 | 0.161 |  |  |  | 0.437 | 0.44 | 0.295 | 0.35 | 0.3 | 0.189 | 0.316 | 0.54 | 0.37 | 0.323 | 0.259
16 | PC-3 [JPC-3] | 0.452 | 0.481 | 0.433 | 0.745 | 0.807 | 0.871 | 0.832 | 0.807 | 0.773 | 0.769 | 0.768 | 0.672 | 0.66 | 0.709 | 0.728 | 0.724 | 0.776
17 | NCI-H2228 | 1.07 | 1.02 | 0.323 | 0.853 | 0.992 | 0.244 |  |  |  | 0.494 | 0.225 | 0.183 | 0.144 | 0.16 | 0.177 | 0.154 | 0.16
18 | HOP-62 | 1.07 | 0.97 | 0.974 | 0.994 | 1.11 | 0.968 | 0.691 | 1.1 | 0.764 | 0.736 | 0.606 | 0.73 | 0.887 | 0.911 | 0.862 | 0.9 | 0.951
19 | HARA | 0.943 | 0.634 | 0.661 | 1.15 | 1.11 | 1.08 | 0.292 | 0.393 | 1.07 | 0.476 | 0.372 | 0.381 | 0.773 | 1.03 | 0.735 | 0.484 | 0.818
20 | NCI-H838 | 0.934 | 0.913 | 1.03 | 1.19 | 1.14 | 1 | 0.938 | 0.925 | 1 | 0.444 | 0.447 | 0.424 | 0.328 | 0.31 | 0.372 | 0.429 | 0.382
